Assay results published in ChEMBL document CHEMBL5584236, “Development of novel bisphenol derivatives with a membrane-targeting mechanism as potent gram-positive antibacterial agents” (Eur J Med Chem, 2024).

How the values were obtained:
[1] = tested on: Staphylococcus aureus; assay: Antibacterial activity against Staphylococcus aureus ATCC25923 assessed as reduction in microbial growth incubated for 22 to 24 hrs by CLSI based broth microdilution method; format: functional; conditions: time 22-24 hrs
[2] = Hemolytic activity against rabbit RBC incubated for 1 hr by multimode plate reader; format: toxicity, cell-based, Oryctolagus cuniculus, Erythrocyte; conditions: rabbit red blood cells (erythrocytes)
[3] = tested on: Klebsiella pneumoniae; assay: Antibacterial activity against Klebsiella pneumoniae ATCC10031 assessed as reduction in microbial growth incubated for 22 to 24 hrs by CLSI based broth microdilution method; format: functional; conditions: time 22-24 hrs
[4] = tested on: Staphylococcus aureus; assay: Antibacterial activity against Staphylococcus aureus ATCC29213 assessed as reduction in microbial growth incubated for 22 to 24 hrs by CLSI based broth microdilution method; format: functional; conditions: time 22-24 hrs
[5] = tested on: Acinetobacter baumannii; assay: Antibacterial activity against Acinetobacter baumannii ATCC17978 assessed as reduction in microbial growth incubated for 22 to 24 hrs by CLSI based broth microdilution method; format: functional; conditions: time 22-24 hrs
[6] = tested on: Staphylococcus aureus; assay: Antibacterial activity against methicillin-resistant Staphylococcus aureus NCTC10442 assessed as reduction in microbial growth incubated for 22 to 24 hrs by CLSI based broth microdilution method; format: functional; conditions: time 22-24 hrs
[7] = tested on: Staphylococcus epidermidis; assay: Antibacterial activity against Staphylococcus epidermidis CMCC26069 assessed as reduction in microbial growth incubated for 22 to 24 hrs by CLSI based broth microdilution method; format: functional; conditions: time 22-24 hrs
[8] = tested on: Staphylococcus epidermidis; assay: Antibacterial activity against Staphylococcus epidermidis ATCC12228 assessed as reduction in microbial growth incubated for 22 to 24 hrs by CLSI based broth microdilution method; format: functional; conditions: time 22-24 hrs
[9] = tested on: Staphylococcus aureus; assay: Antibacterial activity against methicillin-resistant Staphylococcus aureus N315 assessed as reduction in microbial growth incubated for 22 to 24 hrs by CLSI based broth microdilution method; format: functional; conditions: time 22-24 hrs
[10] = tested on: Acinetobacter baumannii; assay: Antibacterial activity against Acinetobacter baumannii R28889 assessed as reduction in microbial growth incubated for 22 to 24 hrs by CLSI based broth microdilution method; format: functional; conditions: time 22-24 hrs
[11] = tested on: Escherichia coli; assay: Antibacterial activity against Escherichia coli ATCC25922 assessed as reduction in microbial growth incubated for 22 to 24 hrs by CLSI based broth microdilution method; format: functional; conditions: time 22-24 hrs
[12] = tested on: Staphylococcus aureus; assay: Drug resistance, ratio of MIC for Staphylococcus aureus ATCC29213 after 13 passages to MIC for Staphylococcus aureus ATCC29213 after initial exposure; format: functional
[13] = tested on: Staphylococcus aureus; assay: Antibacterial activity against Staphylococcus aureus ATCC29213 infected in C57BL6 mouse corneal infection model assessed as log reduction in CFU at 5 % administered topically on corneas for four times in 3 days by MHA plate counting method; format: functional; conditions: time 3 day

## CC(C)=CCOc1ccc(S(=O)(=O)c2ccc(OCCCCNC(=N)N)cc2)cc1
[1]
  MIC: 3.12 µg/mL
[2]
  HC50 at 1 h: > 200 µg/mL
[3]
  MIC: 6.25 µg/mL
[4]
  MIC: 3.12 µg/mL
[5]
  MIC: 6.25 µg/mL
[6]
  MIC: 3.12 µg/mL
[7]
  MIC: 1.56 µg/mL
[8]
  MIC: 1.56 µg/mL
[9]
  MIC: 1.56 µg/mL
[10]
  MIC: 6.25 µg/mL
[11]
  MIC: 12.5 µg/mL

## C=CCOc1ccc(S(=O)(=O)c2ccc(OCC(=O)OCC)cc2)cc1
[2]
  HC50 at 1 h: > 200 µg/mL
[4]
  MIC: > 50 µg/mL
[6]
  MIC: > 50 µg/mL
[9]
  MIC: > 50 µg/mL
[11]
  MIC: > 50 µg/mL

## CC(C)=CCOc1ccc(S(=O)(=O)c2ccc(OCCCCN(C)C)cc2)cc1
[2]
  HC50 at 1 h: 67.8 µg/mL
[4]
  MIC: 25 µg/mL
[6]
  MIC: 12.5 µg/mL
[9]
  MIC: 12.5 µg/mL
[11]
  MIC: 50 µg/mL

## CCn1cc(C(=O)O)c(=O)c2cc(F)c(N3CCNCC3)cc21 [NORFLOXACIN]
[12]
  Ratio: 4

## C=CCOc1ccc(S(=O)(=O)c2ccc(OCCCCNC(=N)N)cc2)cc1
[2]
  HC50 at 1 h: > 200 µg/mL
[4]
  MIC: 6.25 µg/mL
[6]
  MIC: 6.25 µg/mL
[9]
  MIC: 6.25 µg/mL
[11]
  MIC: 50 µg/mL

## CC(C)=CCOc1ccc(S(=O)(=O)c2ccc(OCCOCCNC(=N)N)cc2)cc1
[2]
  HC50 at 1 h: > 200 µg/mL
[4]
  MIC: 6.25 µg/mL
[6]
  MIC: 3.12 µg/mL
[9]
  MIC: 3.12 µg/mL
[11]
  MIC: 50 µg/mL

## CC(C)=CCC/C(C)=C\COc1ccc(S(=O)(=O)c2ccc(OCCCCNC(=N)N)cc2)cc1
[2]
  HC50 at 1 h: 144 µg/mL
[4]
  MIC: 1.56 µg/mL
[6]
  MIC: 0.78 µg/mL
[9]
  MIC: 0.78 µg/mL
[11]
  MIC: > 50 µg/mL

## COC(=O)[C@H](CCCNC(=N)N)NC(=O)[C@H](CCCNC(=N)N)NC(=O)COc1ccc(S(=O)(=O)c2ccc(OCC=C(C)C)cc2)cc1
[2]
  HC50 at 1 h: > 200 µg/mL
[4]
  MIC: 25 µg/mL
[6]
  MIC: 6.25 µg/mL
[9]
  MIC: 6.25 µg/mL
[11]
  MIC: > 50 µg/mL

## CC[C@H](C)[C@H](NC(=O)CN)C(=O)NCC(=O)N[C@@H](C)C(=O)N[C@H](C(=O)N[C@@H](CC(C)C)C(=O)N[C@@H](CCCCN)C(=O)N[C@H](C(=O)N[C@@H](CC(C)C)C(=O)N[C@H](C(=O)N[C@H](C(=O)NCC(=O)N[C@@H](CC(C)C)C(=O)N1CCC[C@H]1C(=O)N[C@@H](C)C(=O)N[C@@H](CC(C)C)C(=O)N[C@H](C(=O)N[C@@H](CO)C(=O)N[C@@H](Cc1c[nH]c2ccccc12)C(=O)N[C@H](C(=O)N[C@@H](CCCCN)C(=O)N[C@@H](CCCNC(=N)N)C(=O)N[C@@H](CCCCN)C(=O)N[C@@H](CCCNC(=N)N)C(=O)N[C@@H](CCC(N)=O)C(=O)N[C@@H](CCC(N)=O)C(N)=O)[C@@H](C)CC)[C@@H](C)CC)[C@@H](C)O)[C@@H](C)O)C(C)C)C(C)C [MELITTIN]
[3]
  MIC: 6.25 µg/mL
[5]
  MIC: 3.12 µg/mL
[10]
  MIC: 3.12 µg/mL

## COC(=O)[C@H](CCCNC(=N)N)NC(=O)[C@H](CCCNC(=N)N)NC(=O)[C@H](CCCNC(=N)N)NC(=O)COc1ccc(S(=O)(=O)c2ccc(OC(C)C)cc2)cc1
[2]
  HC50 at 1 h: > 200 µg/mL
[4]
  MIC: > 50 µg/mL
[6]
  MIC: > 50 µg/mL
[9]
  MIC: > 50 µg/mL
[11]
  MIC: > 50 µg/mL

## CCN(CC)CCCCOc1ccc(S(=O)(=O)c2ccc(OCC=C(C)C)cc2)cc1
[2]
  HC50 at 1 h: 69.4 µg/mL
[4]
  MIC: 50 µg/mL
[6]
  MIC: 25 µg/mL
[9]
  MIC: 25 µg/mL
[11]
  MIC: > 50 µg/mL

## COC(=O)[C@H](CCCNC(=N)N)NC(=O)COc1ccc(S(=O)(=O)c2ccc(OCC=C(C)C)cc2)cc1
[2]
  HC50 at 1 h: 200 µg/mL
[4]
  MIC: 25 µg/mL
[6]
  MIC: 12.5 µg/mL
[9]
  MIC: 12.5 µg/mL
[11]
  MIC: > 50 µg/mL

## CCOC(=O)COc1ccc(S(=O)(=O)c2ccc(OC/C=C(/C)CCC=C(C)C)cc2)cc1
[2]
  HC50 at 1 h: > 200 µg/mL
[4]
  MIC: > 50 µg/mL
[6]
  MIC: > 50 µg/mL
[9]
  MIC: > 50 µg/mL
[11]
  MIC: > 50 µg/mL

## CN[C@H](CC(C)C)C(=O)N[C@H]1C(=O)N[C@@H](CC(N)=O)C(=O)N[C@H]2C(=O)N[C@H]3C(=O)N[C@H](C(=O)N[C@H](C(=O)O)c4cc(O)cc(O)c4-c4cc3ccc4O)[C@H](O)c3ccc(c(Cl)c3)Oc3cc2cc(c3O[C@@H]2O[C@H](CO)[C@@H](O)[C@H](O)[C@H]2O[C@H]2C[C@](C)(N)[C@H](O)[C@H](C)O2)Oc2ccc(cc2Cl)[C@H]1O [VANCOMYCIN]
[1]
  MIC: 0.78 µg/mL
[4]
  MIC: 0.78 µg/mL
[13]
  log(activity): 4.8

## COC(=O)[C@H](CCCNC(=N)N)NC(=O)COc1ccc(S(=O)(=O)c2ccc(OC/C=C(/C)CCC=C(C)C)cc2)cc1
[2]
  HC50 at 1 h: > 200 µg/mL
[4]
  MIC: > 50 µg/mL
[6]
  MIC: 50 µg/mL
[9]
  MIC: 50 µg/mL
[11]
  MIC: > 50 µg/mL

## CCNCCCCOc1ccc(S(=O)(=O)c2ccc(OCC=C(C)C)cc2)cc1
[2]
  HC50 at 1 h: 70.8 µg/mL
[4]
  MIC: 25 µg/mL
[6]
  MIC: 25 µg/mL
[9]
  MIC: 25 µg/mL
[11]
  MIC: > 50 µg/mL

## C=CCOc1ccc(S(=O)(=O)c2ccc(OCC(=O)N[C@@H](CCCNC(=N)N)C(=O)OC)cc2)cc1
[2]
  HC50 at 1 h: > 200 µg/mL
[4]
  MIC: > 50 µg/mL
[6]
  MIC: > 50 µg/mL
[9]
  MIC: > 50 µg/mL
[11]
  MIC: > 50 µg/mL

## CC(C)Oc1ccc(S(=O)(=O)c2ccc(OCCCCNC(=N)N)cc2)cc1
[2]
  HC50 at 1 h: > 200 µg/mL
[4]
  MIC: 12.5 µg/mL
[6]
  MIC: 6.25 µg/mL
[9]
  MIC: 6.25 µg/mL
[11]
  MIC: 50 µg/mL

## CCOC(=O)COc1ccc(S(=O)(=O)c2ccc(OCC=C(C)C)cc2)cc1
[2]
  HC50 at 1 h: > 200 µg/mL
[4]
  MIC: > 50 µg/mL
[6]
  MIC: > 50 µg/mL
[9]
  MIC: > 50 µg/mL
[11]
  MIC: > 50 µg/mL

## COC(=O)[C@H](CCCNC(=N)N)NC(=O)COc1ccc(S(=O)(=O)c2ccc(OC(C)C)cc2)cc1
[2]
  HC50 at 1 h: > 200 µg/mL
[4]
  MIC: > 50 µg/mL
[6]
  MIC: > 50 µg/mL
[9]
  MIC: > 50 µg/mL
[11]
  MIC: > 50 µg/mL

## COC(=O)[C@H](CCCNC(=N)N)NC(=O)[C@H](CCCNC(=N)N)NC(=O)[C@H](CCCNC(=N)N)NC(=O)COc1ccc(S(=O)(=O)c2ccc(OCC=C(C)C)cc2)cc1
[2]
  HC50 at 1 h: > 200 µg/mL
[4]
  MIC: 12.5 µg/mL
[6]
  MIC: 6.25 µg/mL
[9]
  MIC: 6.25 µg/mL
[11]
  MIC: > 50 µg/mL

## C=CCCCCCOc1ccc(S(=O)(=O)c2ccc(OCCCCNC(=N)N)cc2)cc1
[2]
  HC50 at 1 h: > 200 µg/mL
[4]
  MIC: 1.56 µg/mL
[6]
  MIC: 0.78 µg/mL
[9]
  MIC: 0.78 µg/mL
[11]
  MIC: > 50 µg/mL

## O=S(=O)(c1ccc(O)cc1)c1ccc(O)cc1
[2]
  HC50 at 1 h: > 200 µg/mL
[4]
  MIC: > 50 µg/mL
[6]
  MIC: > 50 µg/mL
[9]
  MIC: > 50 µg/mL
[11]
  MIC: > 100 µg/mL

## CC(C)=CCOc1ccc(S(=O)(=O)c2ccc(OCCCCN)cc2)cc1
[2]
  HC50 at 1 h: > 200 µg/mL
[4]
  MIC: 25 µg/mL
[6]
  MIC: 6.25 µg/mL
[9]
  MIC: 6.25 µg/mL
[11]
  MIC: > 50 µg/mL

## COC(=O)[C@H](CCCNC(=N)N)NC(=O)[C@H](CCCNC(=N)N)NC(=O)[C@H](CCCNC(=N)N)NC(=O)COc1ccc(S(=O)(=O)c2ccc(OC/C=C(/C)CCC=C(C)C)cc2)cc1
[2]
  HC50 at 1 h: 165 µg/mL
[4]
  MIC: 0.78 µg/mL
[6]
  MIC: 0.78 µg/mL
[9]
  MIC: 0.78 µg/mL
[11]
  MIC: 6.25 µg/mL

## CCOC(=O)COc1ccc(S(=O)(=O)c2ccc(OC(C)C)cc2)cc1
[2]
  HC50 at 1 h: > 200 µg/mL
[4]
  MIC: > 50 µg/mL
[6]
  MIC: > 50 µg/mL
[9]
  MIC: > 50 µg/mL
[11]
  MIC: > 50 µg/mL

## CC(C)=CCOc1ccc(S(=O)(=O)c2ccc(OCCCNC(=N)N)cc2)cc1
[2]
  HC50 at 1 h: > 200 µg/mL
[4]
  MIC: 6.25 µg/mL
[6]
  MIC: 3.12 µg/mL
[9]
  MIC: 3.12 µg/mL
[11]
  MIC: 50 µg/mL
